The structures appear in SMILES notation.

Sequence of Mcl-1 protein (Q07820 whole entry): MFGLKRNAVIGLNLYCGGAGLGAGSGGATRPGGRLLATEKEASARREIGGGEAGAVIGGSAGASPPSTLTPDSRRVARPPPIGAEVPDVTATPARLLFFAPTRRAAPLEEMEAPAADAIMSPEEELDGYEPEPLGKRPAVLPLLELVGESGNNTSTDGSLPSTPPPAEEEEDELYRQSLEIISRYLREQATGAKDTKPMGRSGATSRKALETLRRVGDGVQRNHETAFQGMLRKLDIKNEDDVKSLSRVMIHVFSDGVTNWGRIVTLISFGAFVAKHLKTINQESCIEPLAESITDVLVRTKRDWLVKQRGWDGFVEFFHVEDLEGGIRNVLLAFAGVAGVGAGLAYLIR

The first assay deals with Mcl-1 protein (Homo sapiens, UniProt Q07820). The assay is described as follows: Inhibition of Mcl-1 by the fluorescence polarisation technique (Method 1 or Method 2). Type of assay: binding. The note with it: fluorescence polarisation, Fluorescein labelled ligand; Method 1 (not underlined) or Method 2 (underlined); read-out: IC50 (μM) Mcl-1 FP. How it is done:
The relative binding potency of each compound was determined via Fluorescence Polarisation (FP).
An 11 point serial dilution of each compound was prepared in DMSO and 2 μl transferred into flat bottomed, low binding, 384-well plate (final DMSO concentration 5%). 38 μl of buffer (10 mM 4-(2-hydroxyethyl)-1-piperazineethanesulfonic acid [HEPES], 150 mM NaCl, 0.05% Tween 20, pH 7.4), containing the Fluorescein labelled ligand (final concentration 1 nM) and Mcl-1 protein (final concentration 5 nM) was then added.
An 11 point serial dilution of each compound was prepared in DMSO and 2 μl transferred into flat bottomed, low binding, 384-well plate (final DMSO concentration 5%). 38 μl of buffer (20 mM Na2HPO4, 1 mM EDTA, 50 mM NaCl, pH 7.4), containing the Fluorescein labelled ligand (final concentration 10 nM) and Mcl-1 protein (final concentration 10 nM) was then added.
For the molecule `CCc1sc2ncnc(N[C@H](CC3CCCCC3)C(=O)O)c2c1-c1cccc2[nH]ccc12` (single isomer, unassigned) [Example 242, 3-cyclohexyl-N-[6-ethyl-5-(1H-indol-4-yl)thieno[2,3-d]pyrimidin-4-yl]-D-alanine], the 50% inhibitory concentration (IC50) (usually the midpoint of a concentration-inhibition curve) is 0.091 µM.
Same read-out and setting: as for `C/C=C\c1sc2ncnc(N[C@H](Cc3ccccc3)C(=O)O)c2c1-c1cccc2ccccc12` [Example 105, N-[(5Ra)-5-(naphthalen-1-yl)-6-((1Z)-prop-1-en-1-yl)thieno[2,3-d]pyrimidin-4-yl]-D-phenylalanine], the figure is 0.704 µM; as for `CCc1sc2ncnc(NC(Cc3ccccc3)C(=O)O)c2c1-c1cccc(Br)c1C` [Example 97, N-[(5Sa)-5-(3-bromo-2-methylphenyl)-6-ethylthieno[2,3-d]pyrimidin-4-yl]-D-phenylalanine], 0.073 µM; as for `CCc1sc2ncnc(NC(Cc3ccccc3OCc3cccc(Cl)c3)C(=O)O)c2c1-c1cccc(Cl)c1C` [Example 149, 2-[(3-chlorobenzyl)oxy]-N-[(5Ra)-5-(3-chloro-2-methylphenyl)-6-ethylthieno[2,3-d]pyrimidin-4-yl]-D-phenylalanine], 14 µM.
As to `C=C(C)c1sc2ncnc(NC(Cc3ccccc3)C(=O)O)c2c1-c1cccc2ccccc12` [Example 107, N-[(5Ra)-5-(naphthalen-1-yl)-6-(prop-1-en-2-yl)thieno[2,3-d]pyrimidin-4-yl]-D-phenylalanine], the IC50 amounted to 0.544 µM.
Consider `CCCCn1nccc1COc1ccccc1CC(Nc1ncnc2sc(-c3ccc(F)o3)c(-c3ccc(OCCN4CCN(C)CC4)c(Cl)c3C)c12)C(=O)O` [Example 24, 2-[(1-butyl-1H-pyrazol-5-yl)methoxy]-N-[(5Sa)-5-{3-chloro-2-methyl-4-[2-(4-methylpiperazin-1-yl)ethoxy]phenyl}-6-(5-fluorofuran-2-yl)thieno[2,3-d]pyrimidin-4-yl]-D-phenylalanine], for which the IC50 is 0.008 µM.
For the molecule `CCc1sc2ncnc(N[C@H](Cc3ccccc3)C(=O)O)c2c1-c1cccc2ccccc12` [Example 79, N-[6-ethyl-5-(naphthalen-1-yl)thieno[2,3-d]pyrimidin-4-yl]-D-phenylalanine], the IC50 worked out at 0.429 µM.
Consider `CCc1sc2ncnc(NC(Cc3cccnc3)C(=O)O)c2c1-c1cccc2ccccc12` [Example 162, N-[6-ethyl-(5Sa)-5-(naphthalen-1-yl)thieno[2,3-d]pyrimidin-4-yl]-3-pyridin-3-yl-D-alanine], for which the IC50 was 0.597 µM.
Take `CCc1sc2ncnc(NC(Cc3ccccc3)C(=O)O)c2c1-c1cc(Cl)c(OCCN2CCN(C)CC2)c(Cl)c1C` [Example 54, N-((5Sa)-5-{3,5-dichloro-2-methyl-4-[2-(4-methylpiperazin-1-yl)ethoxy]phenyl}-6-ethylthieno[2,3-d]pyrimidin-4-yl)-D-phenylalanine]: the concentration for half-maximal inhibition (IC50) turned out to be 0.541 µM.
For the molecule `CCc1sc2ncnc(N[C@H](Cc3ccncc3)C(=O)O)c2c1-c1cccc2ccccc12` [Example 193, N-[6-ethyl-5-(naphthalen-1-yl)thieno[2,3-d]pyrimidin-4-yl]-3-pyridin-4-yl-D-alanine], the half-maximal inhibitory concentration (IC50) worked out at 36.5 µM.
For `Cc1c(Cl)cccc1-c1c(C2CC2)sc2ncnc(NC(Cc3ccccc3)C(=O)O)c12` [Example 217, N-[(5Sa)-5-(3-chloro-2-methylphenyl)-6-cyclopropyl-thieno[2,3-d]pyrimidin-4-yl]-D-phenylalanine], the IC50 was found to be 0.065 µM.
For the molecule `CCc1sc2ncnc(NC(Cc3ccccn3)C(=O)O)c2c1-c1cccc2c1c(Cl)cn2CCN1CCN(C)CC1` [Example 249, N-((5Ra)-5-{3-chloro-1-[2-(4-methylpiperazin-1-yl)ethyl]-1H-indol-4-yl}-6-ethyl-thieno[2,3-d]pyrimidin-4-yl)-3-pyridin-2-yl-D-alanine], the IC50 amounted to 36.8 µM.
As to `CCc1sc2ncnc(N[C@H](Cc3ccccc3C)C(=O)O)c2c1-c1cccc2ccccc12` (single isomer, unassigned) [Example 168, N-[6-ethyl-5-(naphthalen-1-yl)thieno[2,3-d]pyrimidin-4-yl]-2-methyl-D-phenylalanine], the IC50 turned out to be 4.78 µM.
Take `CCc1sc2ncnc(N[C@@H](Cn3cccn3)C(=O)O)c2c1-c1cccc(Cl)c1C` (racemic) [Example 110, N-[5-(3-chloro-2-methylphenyl)-6-ethylthieno[2,3-d]pyrimidin-4-yl]-3-(1H-pyrazol-1-yl)alanine]: the IC50 was 0.839 µM.
Take `CCc1sc2ncnc(NC(Cc3ccccc3F)C(=O)O)c2c1-c1cccc2ccccc12` [Example 180, N-[6-ethyl-(5Ra)-5-(naphthalen-1-yl)thieno[2,3-d]pyrimidin-4-yl]-2-fluoro-D-phenylalanine]: the IC50 is 2.1 µM.
Consider `CCc1sc2ncnc(NC(Cc3ccccc3)C(=O)O)c2c1-c1ccc(OCCN2CCN(C)CC2)c(Cl)c1C` [Example 62, N-((5Sa)-5-{3-chloro-2-methyl-4-[2-(4-methylpiperazin-1-yl)ethoxy]phenyl}-6-ethylthieno[2,3-d]pyrimidin-4-yl)-D-phenylalanine], for which the half-inhibitory concentration (IC50) was 0.06 µM.
`CCc1sc2ncnc(N[C@H](Cc3ccccc3)C(=O)O)c2c1-c1cccc2[nH]ncc12` [Example 98, N-[6-ethyl-5-(1H-indazol-4-yl)thieno[2,3-d]pyrimidin-4-yl]-D-phenylalanine]: the 50% inhibitory concentration (IC50) is 2.87 µM.

Still in this assay, the particulars now being: partial inhibitors; @ 10 μM test compound.
With `CCc1sc2ncnc(N[C@H](Cc3ccccc3)C(=O)O)c2c1-c1ccc(OCCN2CCN(C)CC2)c(Cl)c1C` [Example 63, N-((5Ra)-5-{3-chloro-2-methyl-4-[2-(4-methylpiperazin-1-yl)ethoxy]phenyl}-6-ethylthieno[2,3-d]pyrimidin-4-yl)-D-phenylalanine], the “percentage fluorescence polarisation inhibition, Mcl-1 FP” value was 12.18% @ 10 μM.

The same assay, now with this note: partial inhibitors; @ 50 μM test compound.
Regarding `CCc1sc2ncnc(N[C@H](Cc3ccccc3OCCCN(C)C)C(=O)O)c2c1-c1cccc(Cl)c1C` [Example 157, N-[(5Ra)-5-(3-chloro-2-methylphenyl)-6-ethylthieno[2,3-d]pyrimidin-4-yl]-2-[3-(dimethylamino)propoxy]-D-phenylalanine], the “percentage fluorescence polarisation inhibition, Mcl-1 FP” value came to 62.05% @ 50 μM.
Same read-out and setting: for `CCc1sc2ncnc(N[C@H](Cc3ccccc3[N+](=O)[O-])C(=O)O)c2c1-c1cccc(Cl)c1C` [Example 135, N-[(5Ra)-5-(3-chloro-2-methylphenyl)-6-ethylthieno[2,3-d]pyrimidin-4-yl]-2-nitro-D-phenylalanine] the value was 75.25% @ 50 μM; for `CCc1sc2ncnc(N[C@H](Cc3ccccc3)C(=O)O)c2c1-c1cccc2c1c(Cl)cn2CCN(C)C` [Example 231, N-((5Ra)-5-{3-chloro-1-[2-(dimethylamino)ethyl]-1H-indol-4-yl}-6-ethyl-thieno[2,3-d]pyrimidin-4-yl)-D-phenylalanine], 56.75% @ 50 μM; for `CCc1sc2ncnc(NC(Cc3ccccc3)C(=O)O)c2c1-c1cccc2c1c(Cl)cn2CCN1CCCCC1` [Example 234, N-((5Ra)-5-{3-chloro-1-[2-(piperidin-1-yl)ethyl]-1H-indol-4-yl}-6-ethyl-thieno[2,3-d]pyrimidin-4-yl)-D-phenylalanine], 68.7% @ 50 μM.
Turning to `CCc1sc2ncnc(N[C@H](Cc3ccccc3OCCN(C)C)C(=O)O)c2c1-c1cccc(Cl)c1C` [Example 155, N-[(5Ra)-5-(3-chloro-2-methylphenyl)-6-ethylthieno[2,3-d]pyrimidin-4-yl]-2-[2-(dimethylamino)ethoxy]-D-phenylalanine], the “percentage fluorescence polarisation inhibition, Mcl-1 FP” value was found to be 63.15% @ 50 μM.

The values above are taken from US10457687B2, “Aminoacid derivatives, a process for their preparation and pharmaceutical compositions containing them” (LES LABORATOIRES SERVIER, priority 2015, dated 2019).
